Columns and labels:
Cercospora beticola = details: in vivo
Uromyces phaseoli [1] = details: in vivo
[2] = tested on: Pythium ultimum and Rhizoctonia solani; experiment: Soil/seed treatment, cucumber damping-off complex; format: in vivo; details: 150 ppm suspension, 3.75 to 3.8 mg per pot
Protocol: Containers having a volume of about 0.25 l. were 2/3 filled with topsoil and 25 cucumber c.v. [Straight Eight` seeds deposited on the soil surface of each pot. A suspension containing 150 ppm of the test chemical was poured over the seeds and into the soil in sufficient quantity to provide 3.75 to 3.8 mg active ingredient per pot.
Fungi used in this test were Pythium ultimum and Rhizoctonia solani. These fungi were each grown on potato dextrose agar for three to six days. The agar plus mycelium was then minced in a blender with water and 10 ml of the resulting slurry of minced mycelium poured over the seeds.
Following inoculation approximately 15 mm of topsoil was spread over the seeds, the container capped and incubated at 4° C. in darkness for three days, then transferred to a greenhouse (27° C.) for 10-14 days, at which time stand counts were made. Captan was used as a standard for comparison. Based on stand counts on Efficacy Index was calculated for each test chemical as follows: [formula]

Alternaria solani = experiment: Spore germination test; format: cell-based; details: AS, 48 hours
Procedure, shortened: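 Compound in acetone was mixed into water agar at final 40, 10, 2.5 and 1 ppm and poured into quadrant dishes. Quadrants received spore suspension, while Erysiphe polygoni and Uromyces phaseoli spores were brushed on from infected leaves. After 48 h at 24 °C, the percentage of germinated spores was converted to a germination rating.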

Fusarium solani = experiment: Soil treatment, bean root rot; format: in vivo; details: 150 ppm suspension, 3.8 mg active per pot
Procedure, shortened: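 Soil around bean seedlings was drenched with a 150 ppm suspension, giving 3.8 mg active per pot. Twenty-four hours later the soil was inoculated with minced Fusarium solani mycelium. Plants were kept in a greenhouse, and percent control of root rot damage was scored after fourteen days.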

Erysiphe polygoni = details: in vivo
Uromyces phaseoli [3] = details: in vivo; remark: listed apart in the source

Row | Substance | Percent Disease Control, curative, sugar beet leaf spot (Cercospora beticola) [%] | Percent Disease Control, curative, bean rust (Uromyces phaseoli [1]) [%] | Efficacy Index, seed/soil, cucumber damping-off complex [2] | Spore Germination Rating (Alternaria solani; 1.0 ppm) | Spore Germination Rating (Alternaria solani; 2.5 ppm) | Spore Germination Rating (Alternaria solani; 10 ppm) | Spore Germination Rating (Alternaria solani; 40 ppm) | Percent Disease Control, seed/soil, bean root rot (Fusarium solani) [%] | Percent Disease Control, curative, bean powdery mildew (Erysiphe polygoni) [%] | Percent Disease Control, foliar, bean rust (Uromyces phaseoli [3]) [%]
1 | 3-chloro-5-(bromophenoxy)-4H-1,2,6-thiadiazin-4-one [Compound 33] | 0 | 0 | 0 | 1 (10-40) | 0 (0-10) | 0 (0-10) | 0 (0-10) | 95 | 95 | 100
2 | 3-chloro-5-[methylaminocarbonyloxy)phenoxyl]-4H-1,2,6-thiadiazin-4-one [Compound 36] | – | 0 | 13 | 4 (80-100) | 4 (80-100) | 2 (40-60) | 0 (0-10) | – | 0 | 100
